According to PubChem BioAssay AID256 (DTP/NCI, 2004):
“And” between values parts separate entries of the source, which are not always exact repeats. Identical values can stand only once. Inconclusive results and toxic doses are left out.

Tested on: CD2F1 mice, L1210 leukemia ip, survival T/C
Assay: NCI In Vivo Anticancer Drug Screen. Data for tumor model L1210 Leukemia (intraperitoneal) in CD2F1 (CDF1) mice
Settings: higher = longer survival
Summary of the method: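 Activity against a transplanted murine tumor was judged by comparing the compound group with a vehicle group. The outcome in the treated animals was divided by that in the controls.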

[1] = endpoint: mean survival time, dose: 50.0 mg/kg/injection, schedule: Q01DX009 (ip), vehicle: saline with Tween-80
[2] = endpoint: mean survival time, dose: 100.0 mg/kg/injection, schedule: Q01DX009 (ip), vehicle: saline with Tween-80
[3] = endpoint: mean survival time, dose: 100.0 mg/kg/injection, schedule: Q04DX003 (ip), vehicle: saline with Tween-80
[4] = endpoint: mean survival time, dose: 200.0 mg/kg/injection, schedule: Q04DX003 (ip), vehicle: saline with Tween-80
[5] = endpoint: mean survival time, dose: 400.0 mg/kg/injection, schedule: Q04DX003 (ip), vehicle: saline with Tween-80
[6] = endpoint: mean survival time, dose: 200.0 mg/kg/injection, schedule: Q01DX009 (ip), vehicle: saline with Tween-80
[7] = endpoint: mean survival time, dose: 400.0 mg/kg/injection, schedule: Q01DX009 (ip), vehicle: saline with Tween-80
[8] = endpoint: mean survival time, dose: 12.5 mg/kg/injection, schedule: Q01DX009 (ip), vehicle: other
[9] = endpoint: mean survival time, dose: 25.0 mg/kg/injection, schedule: Q01DX009 (ip), vehicle: other
[10] = endpoint: mean survival time, dose: 6.25 mg/kg/injection, schedule: Q01DX009 (ip), vehicle: saline with Tween-80
[11] = endpoint: mean survival time, dose: 25.0 mg/kg/injection, schedule: Q01DX009 (ip), vehicle: saline with Tween-80

SMILES: CCNc1nc(NCC)nc(SC)n1
- T/C [1]: 100 % of control
- T/C [2]: 89 % of control
- T/C [3]: 100 % of control
- T/C [4]: 97 % of control

SMILES: CC(=O)Oc1cc2c(OC(C)=O)c(-c3c(C)cc4c(C(C)C)c(OC(C)=O)c(OC(C)=O)cc4c3OC(C)=O)c(C)cc2c(C(C)C)c1OC(C)=O
- T/C (endpoint: mean survival time, dose: 25.0 mg/kg/injection, schedule: Q04DX002 (ip), vehicle: saline with Tween-80): 100 % of control
- T/C (endpoint: mean survival time, dose: 50.0 mg/kg/injection, schedule: Q04DX002 (ip), vehicle: saline with Tween-80): 96 % of control
- T/C (endpoint: mean survival time, dose: 100.0 mg/kg/injection, schedule: Q04DX002 (ip), vehicle: saline with Tween-80): 89 % of control

SMILES: C(=N/N=C(\C(=N\N=C\c1ccc2c(c1)CCC2)c1ccccc1)c1ccccc1)\c1ccc2c(c1)CCC2
- T/C [3]: 96 % of control
- T/C [4]: 89 % of control
- T/C [5]: 87 % of control

SMILES: CCCCCCC(Sc1nn(C2OC(COC(=O)c3ccccc3)C(OC(=O)c3ccccc3)C2OC(=O)c2ccccc2)c(=O)[nH]c1=O)C(=O)OCC (stereo unspecified)
- T/C (endpoint: mean survival time, dose: 12.5 mg/kg/injection, schedule: Q01DX005 (ip), vehicle: distilled water + Tween-80): 100 % of control
- T/C (endpoint: mean survival time, dose: 25.0 mg/kg/injection, schedule: Q01DX005 (ip), vehicle: distilled water + Tween-80): 100 % of control
- T/C (endpoint: mean survival time, dose: 50.0 mg/kg/injection, schedule: Q01DX005 (ip), vehicle: distilled water + Tween-80): 94 % of control
- T/C (endpoint: mean survival time, dose: 100.0 mg/kg/injection, schedule: Q01DX005 (ip), vehicle: distilled water + Tween-80): 95 % of control
- T/C (endpoint: mean survival time, dose: 200.0 mg/kg/injection, schedule: Q01DX005 (ip), vehicle: distilled water + Tween-80): 94 % of control

SMILES: CC1(C)CC(=O)C=C(N)C1
- T/C [2]: 100 % of control
- T/C [6]: 97 % of control
- T/C [7]: 108 % of control

SMILES: CCOCCC#N
- T/C (endpoint: mean survival time, dose: 50.0 mg/kg/injection, schedule: Q01DX009 (ip), vehicle: Klucel (hydroxypropylcellulose) (HPC)): 102 % of control
- T/C (endpoint: mean survival time, dose: 100.0 mg/kg/injection, schedule: Q01DX009 (ip), vehicle: Klucel (hydroxypropylcellulose) (HPC)): 102 % of control
- T/C (endpoint: mean survival time, dose: 200.0 mg/kg/injection, schedule: Q01DX009 (ip), vehicle: Klucel (hydroxypropylcellulose) (HPC)): 102 % of control

SMILES: CCOC(=O)Nc1ccccc1F
- T/C [2]: 98 % of control
- T/C [6]: 107 % of control
- T/C [7]: 95 % of control

SMILES: C1CCC2C(C1)CC1CCCCC1C2C1C2CCCCC2CC2CCCCC21 (stereo unspecified)
- T/C [3]: 97 % of control
- T/C [4]: 100 % of control
- T/C [5]: 96 % of control

SMILES: CC(N)C(=O)NC(C(=O)O)C(C)O (stereo unspecified)
- T/C (endpoint: mean survival time, dose: 25.0 mg/kg/injection, schedule: Q01DX009 (ip), vehicle: saline): 102 % of control
- T/C (endpoint: mean survival time, dose: 50.0 mg/kg/injection, schedule: Q01DX009 (ip), vehicle: saline): 103 % of control
- T/C (endpoint: mean survival time, dose: 100.0 mg/kg/injection, schedule: Q01DX009 (ip), vehicle: saline): 105 % of control
- T/C (endpoint: mean survival time, dose: 200.0 mg/kg/injection, schedule: Q01DX009 (ip), vehicle: saline): 98 % of control
- T/C (endpoint: mean survival time, dose: 400.0 mg/kg/injection, schedule: Q01DX009 (ip), vehicle: saline): 98 % of control

SMILES: O=c1nc(N2CCOCC2)ccn1C1OC(CO)C(O)C1O (stereo unspecified)
- T/C (endpoint: mean survival time, dose: 100.0 mg/kg/injection, schedule: Q01DX005 (ip), vehicle: water): 104 % of control
- T/C (endpoint: mean survival time, dose: 200.0 mg/kg/injection, schedule: Q01DX005 (ip), vehicle: water): 101 % of control
- T/C (endpoint: mean survival time, dose: 400.0 mg/kg/injection, schedule: Q01DX005 (ip), vehicle: water): 107 % of control

SMILES: CC1C([N+]2(C)CCCCC2)CS1(=O)=O (stereo unspecified)
- T/C (endpoint: mean survival time, dose: 100.0 mg/kg/injection, schedule: Q04DX002 (ip), vehicle: saline): 103 % of control
- T/C (endpoint: mean survival time, dose: 200.0 mg/kg/injection, schedule: Q04DX002 (ip), vehicle: saline): 100 % of control
- T/C (endpoint: mean survival time, dose: 400.0 mg/kg/injection, schedule: Q04DX002 (ip), vehicle: saline): 95 % of control

SMILES: C=CCN(CC#N)CC#N
- T/C (endpoint: mean survival time, dose: 2.5 mg/kg/injection, schedule: Q04DX003 (ip), vehicle: Klucel (hydroxypropylcellulose) (HPC)): 106 % of control
- T/C (endpoint: mean survival time, dose: 5.0 mg/kg/injection, schedule: Q04DX003 (ip), vehicle: Klucel (hydroxypropylcellulose) (HPC)): 97 % of control
- T/C (endpoint: mean survival time, dose: 10.0 mg/kg/injection, schedule: Q04DX003 (ip), vehicle: Klucel (hydroxypropylcellulose) (HPC)): 105 % of control

SMILES: CC(C)C(=O)OCC(C)(C)COC(=O)C(C)C
- T/C (endpoint: mean survival time, dose: 100.0 mg/kg/injection, schedule: Q04DX003 (ip), vehicle: saline): 87 % of control
- T/C (endpoint: mean survival time, dose: 200.0 mg/kg/injection, schedule: Q04DX003 (ip), vehicle: saline): 87 % of control
- T/C (endpoint: mean survival time, dose: 400.0 mg/kg/injection, schedule: Q04DX003 (ip), vehicle: saline): 94 % of control

SMILES: CCOC(=O)C(CC)C(=O)OCC
- T/C [2]: 94 % of control
- T/C [6]: 93 % of control
- T/C [7]: 94 % of control

SMILES: CC(C(=O)c1cccs1)=C(C(F)(F)F)C(F)(F)F
- T/C (endpoint: mean survival time, dose: 6.25 mg/kg/injection, schedule: Q01DX009 (ip), vehicle: other): 100 % of control
- T/C [8]: 94 % of control
- T/C [9]: 100 % of control
- T/C (endpoint: mean survival time, dose: 50.0 mg/kg/injection, schedule: Q01DX009 (ip), vehicle: other): 97 % of control

SMILES: CCCCCCCCCCCCCCCC(=O)N(C/C=C/CN(C(=O)CCCCCCCCCCCCCCC)C(C)CCCN(CC)CC)C(C)CCCN(CC)CC (stereo unspecified)
- T/C [8]: 97 % of control
- T/C [9]: 94 % of control

SMILES: CCC1(O)C(=O)OCc2c1cc1n(c2=O)Cc2cc3cc(Cl)ccc3nc2-1 (stereo unspecified)
- T/C (endpoint: median survival time, dose: 5.0 mg/kg/injection, schedule: Q04DX002 (ip), vehicle: saline with Tween-80): 196 % of control
- T/C (endpoint: median survival time, dose: 10.0 mg/kg/injection, schedule: Q04DX002 (ip), vehicle: saline with Tween-80): 264 % of control and 280 % of control
- T/C (endpoint: median survival time, dose: 40.0 mg/kg/injection, schedule: Q04DX002 (ip), vehicle: saline with Tween-80): 89 % of control

SMILES: CC1(C)C(=O)C2(I)CCC1C2 (stereo unspecified)
- T/C [3]: 101 % of control
- T/C [4]: 98 % of control
- T/C [5]: 98 % of control

SMILES: C[N+]([O-])(CCO)Cc1ccccc1 (stereo unspecified)
- T/C (endpoint: mean survival time, dose: 50.0 mg/kg/injection, schedule: Q01DX001 (ip), vehicle: carboxymethylcellulose (CMC)): 102 % of control
- T/C (endpoint: mean survival time, dose: 100.0 mg/kg/injection, schedule: Q01DX001 (ip), vehicle: carboxymethylcellulose (CMC)): 112 % of control
- T/C (endpoint: mean survival time, dose: 200.0 mg/kg/injection, schedule: Q01DX001 (ip), vehicle: carboxymethylcellulose (CMC)): 112 % of control
- T/C (endpoint: mean survival time, dose: 400.0 mg/kg/injection, schedule: Q01DX001 (ip), vehicle: carboxymethylcellulose (CMC)): 112 % of control

SMILES: Cc1ccccc1C(C)NC1=NCCO1 (stereo unspecified)
- T/C [10]: 90 % of control
- T/C (endpoint: mean survival time, dose: 6.25 mg/kg/injection, schedule: Q04DX003 (ip), vehicle: saline with Tween-80): 96 % of control
- T/C (endpoint: mean survival time, dose: 12.5 mg/kg/injection, schedule: Q01DX009 (ip), vehicle: saline with Tween-80): 96 % of control
- T/C (endpoint: mean survival time, dose: 12.5 mg/kg/injection, schedule: Q04DX003 (ip), vehicle: saline with Tween-80): 95 % of control
- T/C [11]: 97 % of control
- T/C (endpoint: mean survival time, dose: 25.0 mg/kg/injection, schedule: Q04DX003 (ip), vehicle: saline with Tween-80): 93 % of control

SMILES: CC(C)C1CCC(C)C(C(O)(C(F)(F)F)C(F)(F)F)C1=O (stereo unspecified)
- T/C (endpoint: mean survival time, dose: 100.0 mg/kg/injection, schedule: Q04DX003 (ip), vehicle: Klucel (hydroxypropylcellulose) (HPC)): 96 % of control
- T/C (endpoint: mean survival time, dose: 200.0 mg/kg/injection, schedule: Q04DX003 (ip), vehicle: Klucel (hydroxypropylcellulose) (HPC)): 95 % of control
- T/C (endpoint: mean survival time, dose: 400.0 mg/kg/injection, schedule: Q04DX003 (ip), vehicle: Klucel (hydroxypropylcellulose) (HPC)): 96 % of control

SMILES: O=C(O)c1ccccn1
- T/C (endpoint: mean survival time, dose: 50.0 mg/kg/injection, schedule: Q04HX027 (ip), vehicle: saline): 102 % of control
- T/C (endpoint: mean survival time, dose: 100.0 mg/kg/injection, schedule: Q04HX027 (ip), vehicle: saline): 93 % of control

SMILES: CCOC(=O)NC(=O)CC#N
- T/C [3]: 101 % of control
- T/C [4]: 93 % of control
- T/C [5]: 103 % of control

SMILES: CCN(CC)CCN1CC2CCCCC2C1 (stereo unspecified)
- T/C [11]: 100 % of control
- T/C [1]: 100 % of control
- T/C [2]: 98 % of control and 102 % of control

SMILES: Cc1cc(C)c(/C(O)=C/C(=S)N2CCOCC2)c(C)c1
- T/C [3]: 98 % of control
- T/C [4]: 98 % of control
- T/C [5]: 98 % of control

SMILES: COc1cc2c3c(c1)-c1c(ccc(OC)c1OC)CC3N(CCCl)CC2 (stereo unspecified)
- T/C (endpoint: mean survival time, dose: 25.0 mg/kg/injection, schedule: Q04DX003 (ip), vehicle: water): 98 % of control
- T/C (endpoint: mean survival time, dose: 50.0 mg/kg/injection, schedule: Q04DX003 (ip), vehicle: water): 105 % of control

SMILES: CC1(CNC(=O)C(=O)NCC2(C)CO2)CO1 (stereo unspecified)
- T/C (endpoint: mean survival time, dose: 22.0 mg/kg/injection, schedule: Q01DX Z (ip), vehicle: saline): 122 % of control
- T/C (endpoint: mean survival time, dose: 150.0 mg/kg/injection, schedule: Q01DX010 (ip), vehicle: saline): 113 % of control
- T/C (endpoint: mean survival time, dose: 225.0 mg/kg/injection, schedule: Q01DX010 (ip), vehicle: saline): 106 % of control

SMILES: CC1([CH2][Hg][Cl])Cc2ccccc2O1 (stereo unspecified)
- T/C (endpoint: mean survival time, dose: 1.56 mg/kg/injection, schedule: Q01DX009 (ip), vehicle: saline with Tween-80): 91 % of control
- T/C (endpoint: mean survival time, dose: 3.13 mg/kg/injection, schedule: Q01DX009 (ip), vehicle: saline with Tween-80): 94 % of control
- T/C [10]: 101 % of control
